Experimental data published in patent US8828908B2, “Herbicidally active bicyclic 1,3-dione compounds” (Syngenta Limited, priority 2007, dated 2014).

How the values were obtained:
Type in all cases: in vivo
[1] = tested on: Alopecurus myosuroides (ALOMY); experiment: Example B pre-emergence herbicidal greenhouse test; conditions: 480 h, evaluated after 20 days, 100=total damage to plant, 0=no damage
Description: (§1) Seeds of a variety of test species were sown in standard soil in pots. After cultivation for one day (pre-emergence) or after 10 days cultivation (post-emergence) under controlled conditions in a glasshouse, the plants were sprayed with an aqueous spray solution derived from the formulation of the technical active ingredient in 0.6 ml acetone and 45 ml formulation solution containing 10.6% Emulsogen EL (Registry number 61791-12-6), 42.2% N-methylpyrrolidone, 42.2% dipropylene glycol monomethyl ether (Registry number 34590-94-8) and 0.2% X-77 (Registry number 11097-66-8). The test plants were then grown in a greenhouse under optimum conditions until, 15 days later for post-emergence and 20 days for pre-emergence, the test was evaluated (100=total damage to plant; 0=no damage to plant).
(§2) Alopecurus myosuroides (ALOMY), Avena fatua (AVEFA), Lolium perenne (LOLPE), Setaria faberi (SETFA), Digitaria sanguinalis (DIGSA), Echinochloa crus-galli (ECHCG)

[2] = tested on: Avena fatua (AVEFA); experiment: Example B pre-emergence herbicidal greenhouse test; conditions: 480 h, evaluated after 20 days, 100=total damage to plant, 0=no damage
Description: as §1, §2

[3] = tested on: Digitaria sanguinalis (DIGSA); experiment: Example B pre-emergence herbicidal greenhouse test; conditions: 480 h, evaluated after 20 days, 100=total damage to plant, 0=no damage
Description: as §1, §2

[4] = tested on: Echinochloa crus-galli (ECHCG); experiment: Example B pre-emergence herbicidal greenhouse test; conditions: 480 h, evaluated after 20 days, 100=total damage to plant, 0=no damage
Description: as §1, §2

[5] = tested on: Lolium perenne (LOLPE); experiment: Example B pre-emergence herbicidal greenhouse test; conditions: 480 h, evaluated after 20 days, 100=total damage to plant, 0=no damage
Description: as §1, §2

[6] = tested on: Setaria faberi (SETFA); experiment: Example B pre-emergence herbicidal greenhouse test; conditions: 480 h, evaluated after 20 days, 100=total damage to plant, 0=no damage
Description: as §1, §2

[7] = tested on: Alopecurus myosuroides (ALOMY); experiment: Example B post-emergence herbicidal greenhouse test; conditions: 360 h, evaluated after 15 days, 100=total damage to plant, 0=no damage
Description: as §1, §2

[8] = tested on: Avena fatua (AVEFA); experiment: as above; conditions: 360 h, evaluated after 15 days, 100=total damage to plant, 0=no damage
Description: as §1, §2

[9] = tested on: Digitaria sanguinalis (DIGSA); experiment: as above; conditions: 360 h, evaluated after 15 days, 100=total damage to plant, 0=no damage
Description: as §1, §2

[10] = tested on: Echinochloa crus-galli (ECHCG); experiment: as above; conditions: 360 h, evaluated after 15 days, 100=total damage to plant, 0=no damage
Description: as §1, §2

[11] = tested on: Lolium perenne (LOLPE); experiment: as above; conditions: 360 h, evaluated after 15 days, 100=total damage to plant, 0=no damage
Description: as §1, §2

[12] = tested on: Setaria faberi (SETFA); experiment: as above; conditions: 360 h, evaluated after 15 days, 100=total damage to plant, 0=no damage
Description: as §1, §2

[13] = tested on: Alopecurus myosuroides (ALOMY); experiment: Example A pre-emergence herbicidal glasshouse test; conditions: 312 h, Rate 250 g/ha, evaluated after 13 days, 100=total damage to plant, 0=no damage to plant
Description: (§3) Seeds of a variety of test species were sown in standard soil in pots. After cultivation for one day (pre-emergence) or after 8 days cultivation (post-emergence) under controlled conditions in a glasshouse (at 24/16° C., day/night; 14 hours light; 65% humidity), the plants were sprayed with an aqueous spray solution derived from the formulation of the technical active ingredient in acetone/water (50:50) solution containing 0.5% Tween 20 (polyoxyethelyene sorbitan monolaurate, CAS RN 9005-64-5). The test plants were then grown in a glasshouse under controlled conditions in a glasshouse (at 24/16° C., day/night; 14 hours light; 65% humidity) and watered twice daily. After 13 days for pre and post-emergence, the test was evaluated (100=total damage to plant; 0=no damage to plant).
(§4) Alopecurus myosuroides (ALOMY), Avena fatua (AVEFA), Setaria faberi (SETFA), Echinochloa crus-galli (ECHCG), Solanum nigrum (SOLNI) and Amaranthus retroflexus (AMARE)

[14] = tested on: Amaranthus retroflexus (AMARE); experiment: Example A pre-emergence herbicidal glasshouse test; conditions: 312 h, Rate 250 g/ha, evaluated after 13 days, 100=total damage to plant, 0=no damage to plant
Description: as §3, §4

[15] = tested on: Avena fatua (AVEFA); experiment: Example A pre-emergence herbicidal glasshouse test; conditions: 312 h, Rate 250 g/ha, evaluated after 13 days, 100=total damage to plant, 0=no damage to plant
Description: as §3, §4

[16] = tested on: Echinochloa crus-galli (ECHCG); experiment: Example A pre-emergence herbicidal glasshouse test; conditions: 312 h, Rate 250 g/ha, evaluated after 13 days, 100=total damage to plant, 0=no damage to plant
Description: as §3, §4

[17] = tested on: Setaria faberi (SETFA); experiment: Example A pre-emergence herbicidal glasshouse test; conditions: 312 h, Rate 250 g/ha, evaluated after 13 days, 100=total damage to plant, 0=no damage to plant
Description: as §3, §4

[18] = tested on: Alopecurus myosuroides (ALOMY); experiment: Example A post-emergence herbicidal glasshouse test; conditions: 312 h, evaluated after 13 days, 100=total damage to plant, 0=no damage
Description: as §3, §4

[19] = tested on: Amaranthus retroflexus (AMARE); experiment: as above; conditions: 312 h, evaluated after 13 days, 100=total damage to plant, 0=no damage
Description: as §3, §4

[20] = tested on: Avena fatua (AVEFA); experiment: as above; conditions: 312 h, evaluated after 13 days, 100=total damage to plant, 0=no damage
Description: as §3, §4

[21] = tested on: Echinochloa crus-galli (ECHCG); experiment: as above; conditions: 312 h, evaluated after 13 days, 100=total damage to plant, 0=no damage
Description: as §3, §4

[22] = tested on: Setaria faberi (SETFA); experiment: as above; conditions: 312 h, evaluated after 13 days, 100=total damage to plant, 0=no damage
Description: as §3, §4

SMILES	pest or weed control at 250 g/ha [1]	pest or weed control at 250 g/ha [2]	pest or weed control at 250 g/ha [3]	pest or weed control at 250 g/ha [4]	pest or weed control at 250 g/ha [5]	pest or weed control at 250 g/ha [6]	pest or weed control at 125 g/ha [7]	pest or weed control at 125 g/ha [8]	pest or weed control at 125 g/ha [9]	pest or weed control at 125 g/ha [10]	pest or weed control at 125 g/ha [11]	pest or weed control at 125 g/ha [12]	further results
CCc1ccc(-c2ccccc2)cc1C1=C(O)[C@H]2CC[C@H](C2)C1=O (single isomer, unassigned) [Compound T2]	0%	20%	0%	100%	10%	0%	10%	0%	0%	60%	0%	30%	–
Cc1ccc(-c2cccc(Cl)c2)cc1C1=C(O)[C@H]2CC[C@H](C2)C1=O (single isomer, unassigned) [Compound T7]	0%	10%	20%	0%	0%	10%	0%	0%	0%	0%	0%	0%	–
Cc1ccc(-c2ccc(Cl)c(C(F)(F)F)c2)cc1C1=C(O)[C@H]2CC[C@H](C2)C1=O (single isomer, unassigned) [Compound T8]	50%	30%	70%	100%	50%	70%	10%	0%	30%	0%	0%	30%	–
Cc1ccc(-c2ccc(Cl)c(Cl)c2)cc1C1=C(O)[C@H]2CC[C@H](C2)C1=O (single isomer, unassigned) [Compound T10]	50%	0%	30%	50%	20%	80%	10%	10%	0%	0%	20%	0%	–
COc1cc(Cl)ccc1-c1ccc(C)c(C2=C(O)[C@H]3CC[C@H](C3)C2=O)c1 (single isomer, unassigned) [Compound T11]	10%	0%	0%	10%	10%	10%	20%	20%	0%	20%	0%	10%	–
Cc1ccc(-c2ccc(Cl)cc2Cl)cc1C1=C(O)[C@H]2CC[C@H](C2)C1=O (single isomer, unassigned) [Compound T12]	30%	40%	100%	40%	70%	60%	0%	10%	60%	70%	0%	80%	–
Cc1cc(-c2ccc(C)c(C3=C(O)[C@H]4CC[C@H](C4)C3=O)c2)ccc1Cl (single isomer, unassigned) [Compound T24]	40%	0%	70%	80%	10%	20%	–	–	0%	30%	–	0%	–
Cc1ccc(-c2ccc(Cl)c(C#N)c2)cc1C1=C(O)[C@H]2CC[C@H](C2)C1=O (single isomer, unassigned) [Compound T25]	0%	0%	80%	50%	20%	80%	20%	0%	80%	0%	0%	30%	–
CCc1ccc(-c2ccc(Cl)cc2F)cc1C1=C(O)[C@H]2C=C[C@H](CC2)C1=O [Compound T57, 3-(4′-chloro-4-ethyl-2′-fluorobiphen-3-yl)bicyclo[3.2.2]non-6-ene-2,4-dione]	–	–	–	–	–	–	–	–	–	–	–	–	pest or weed control at 250 g/ha [13]: 0%; pest or weed control at 250 g/ha [14]: 0%; pest or weed control at 250 g/ha [15]: 0%; pest or weed control at 250 g/ha [16]: 50%; pest or weed control at 250 g/ha [17]: 90%; pest or weed control at 250 g/ha [18]: 30%; pest or weed control at 250 g/ha [19]: 0%; pest or weed control at 250 g/ha [20]: 40%; pest or weed control at 250 g/ha [21]: 100%; pest or weed control at 250 g/ha [22]: 100%
CCc1ccc(-c2ccc(Cl)cc2)cc1C1=C(O)C2CC(C1=O)C2(C)C (centres unmarked) [Compound T69, 3-(4′-chloro-4-ethylbiphen-3-yl)-6,6-dimethylbicyclo[3.1.1]heptane-2,4-dione]	–	–	–	–	–	–	–	–	–	–	–	–	pest or weed control at 250 g/ha [13]: 20%; pest or weed control at 250 g/ha [14]: 0%; pest or weed control at 250 g/ha [15]: 0%; pest or weed control at 250 g/ha [16]: 100%; pest or weed control at 250 g/ha [17]: 90%; pest or weed control at 250 g/ha [18]: 70%; pest or weed control at 250 g/ha [19]: 0%; pest or weed control at 250 g/ha [20]: 80%; pest or weed control at 250 g/ha [21]: 100%; pest or weed control at 250 g/ha [22]: 100%
